Tests used:
Conditions in all cases: 48 h
SEM cells [1] = assay: cell viability relative to DMSO control; higher = less cytotoxic
In short: (§1)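 Viability was expressed as a per-plate percentage of DMSO wells, with cell-free wells as background. Leukemia cells (NOMO1 or SEM at 500 cells/well, P12-Ichikawa at 1000 cells/well) were adapted for at least four passages in each medium and seeded in 1536-well plates (5 μl). Library compounds in DMSO were pin-dosed over an 11-point threefold series from 47 μM to 0.79 nM, and CellTiter-Glo One luminescence was read after 48 h at 37°C.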

SEM cells [2] = assay: AUC of viability dose-response curve (% viability x log10 dose units); higher = less sensitive
In short: (§2)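 Over 48 h at 37°C, leukemia cells in 1536-well plates (500 or 1000 cells/well), adapted to each medium, received library compounds in DMSO at 11 threefold doses from 47 μM to 0.79 nM. CellTiter-Glo One luminescence, normalised per plate to DMSO and cell-free wells, was fitted by a four-parameter log-logistic function of log10 dose. The area under the curve was then integrated by trapezoidal rule, after scaling curves above full viability and removing those that failed quality control.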

NOMO1 [3] = assay: as above
In short: as §2

P12-Ichikawa [4] = assay: as above
In short: as §2

NOMO1 [5] = assay: cell viability relative to DMSO control; higher = less cytotoxic
In short: as §1

P12-Ichikawa [6] = assay: as above
In short: as §1

C[S+](=O)([O-])OCCCCO[S+](C)(=O)[O-]
SEM cells [1], HPLM + 10% dialyzed FBS
Conditions	cell viability [%]
0.000781 µM	102
0.00234 µM	119
0.00702 µM	134
0.0211 µM	124
0.0632 µM	145
0.19 µM	129
0.569 µM	142
1.71 µM	128
5.12 µM	109
15.4 µM	89.6
46.1 µM	43.1

AUC of viability dose-response curve
Conditions	NOMO1 [3]	P12-Ichikawa [4]	SEM cells [2]
HPLM + 10% dialyzed FBS	407	451	440
RPMI 5 mM glucose + 10% FBS	449	438	438
RPMI 5 mM glucose + 10% dialyzed FBS	462	450	436

Cc1cccc(-c2n[nH]cc2-c2ccc3ncccc3n2)n1
AUC of viability dose-response curve
Conditions	HPLM + 10% dialyzed FBS	RPMI 5 mM glucose + 10% FBS	RPMI 5 mM glucose + 10% dialyzed FBS
NOMO1 [3]	447	458	430
SEM cells [2]	459	449	451

c1ccc2c(CCNc3ccc(Nc4ccncc4)cc3)c[nH]c2c1
AUC of viability dose-response curve
Conditions	NOMO1 [3]	P12-Ichikawa [4]	SEM cells [2]
HPLM + 10% dialyzed FBS	426	444	312
RPMI 5 mM glucose + 10% FBS	430	429	282
RPMI 5 mM glucose + 10% dialyzed FBS	425	418	308

CC(C)CC(=O)Nc1n[nH]c2c1CN(C(=O)C1CCN(C)CC1)C2(C)C
NOMO1 [5], HPLM + 10% dialyzed FBS
Conditions	cell viability [%]
0.000781 µM	112
0.00234 µM	154
0.00702 µM	113
0.0211 µM	131
0.0632 µM	85.3
0.19 µM	94.5
0.569 µM	103
1.71 µM	61.4
5.12 µM	71.1
15.4 µM	18.5
46.1 µM	3.76

AUC of viability dose-response curve
Conditions	NOMO1 [3]	P12-Ichikawa [4]	SEM cells [2]
HPLM + 10% dialyzed FBS	331	311	320
RPMI 5 mM glucose + 10% FBS	370	351	338
RPMI 5 mM glucose + 10% dialyzed FBS	325	345	338

F\C1=C\NC(=O)NC1=O
AUC of viability dose-response curve
Conditions	NOMO1 [3]	P12-Ichikawa [4]	SEM cells [2]
HPLM + 10% dialyzed FBS	414	405	407
RPMI 5 mM glucose + 10% FBS	437	435	410
RPMI 5 mM glucose + 10% dialyzed FBS	422	413	412

O=C1c2ccccc2-c2n[nH]c3cccc1c23
cell viability [%]
Conditions	NOMO1 [5]	P12-Ichikawa [6]	SEM cells [1]
HPLM + 10% dialyzed FBS, 0.000781 µM	109	96.5	82.9
HPLM + 10% dialyzed FBS, 0.00234 µM	131	102	101
HPLM + 10% dialyzed FBS, 0.00702 µM	103	107	121
HPLM + 10% dialyzed FBS, 0.0211 µM	111	111	97.9
HPLM + 10% dialyzed FBS, 0.0632 µM	123	107	99
HPLM + 10% dialyzed FBS, 0.19 µM	120	108	104
HPLM + 10% dialyzed FBS, 0.569 µM	92.5	81	5.3
HPLM + 10% dialyzed FBS, 1.71 µM	122	106	102
HPLM + 10% dialyzed FBS, 5.12 µM	102	80	112
HPLM + 10% dialyzed FBS, 15.4 µM	53.6	46.6	76.8
HPLM + 10% dialyzed FBS, 46.1 µM	28.3	12.8	37.4
RPMI 5 mM glucose + 10% FBS, 0.000781 µM	90.6	106	82
RPMI 5 mM glucose + 10% FBS, 0.00234 µM	105	109	107
RPMI 5 mM glucose + 10% FBS, 0.00702 µM	110	107	97.3
RPMI 5 mM glucose + 10% FBS, 0.0211 µM	113	113	103
RPMI 5 mM glucose + 10% FBS, 0.0632 µM	102	109	106
RPMI 5 mM glucose + 10% FBS, 0.19 µM	127	111	107
RPMI 5 mM glucose + 10% FBS, 0.569 µM	113	84.6	6.25
RPMI 5 mM glucose + 10% FBS, 1.71 µM	107	106	98.2
RPMI 5 mM glucose + 10% FBS, 5.12 µM	117	68.4	90.5
RPMI 5 mM glucose + 10% FBS, 15.4 µM	53.7	48.9	63.6
RPMI 5 mM glucose + 10% FBS, 46.1 µM	18.2	10.7	21.2
RPMI 5 mM glucose + 10% dialyzed FBS, 0.000781 µM	101	98.1	86.6
RPMI 5 mM glucose + 10% dialyzed FBS, 0.00234 µM	107	97.2	93.9
RPMI 5 mM glucose + 10% dialyzed FBS, 0.00702 µM	98.3	98.5	99.1
RPMI 5 mM glucose + 10% dialyzed FBS, 0.0211 µM	114	108	105
RPMI 5 mM glucose + 10% dialyzed FBS, 0.0632 µM	116	112	91
RPMI 5 mM glucose + 10% dialyzed FBS, 0.19 µM	115	100	116
RPMI 5 mM glucose + 10% dialyzed FBS, 0.569 µM	120	87.6	5.93
RPMI 5 mM glucose + 10% dialyzed FBS, 1.71 µM	108	101	92.9
RPMI 5 mM glucose + 10% dialyzed FBS, 5.12 µM	94.2	78	103
RPMI 5 mM glucose + 10% dialyzed FBS, 15.4 µM	94.9	62.3	67.4
RPMI 5 mM glucose + 10% dialyzed FBS, 46.1 µM	23.9	16.4	26.7

AUC of viability dose-response curve
Conditions	HPLM + 10% dialyzed FBS	RPMI 5 mM glucose + 10% FBS	RPMI 5 mM glucose + 10% dialyzed FBS
NOMO1 [3]	429	433	449
P12-Ichikawa [4]	416	401	422

C/C(O)=C(\C#N)C(=O)Nc1ccc(C(F)(F)F)cc1
AUC of viability dose-response curve
Conditions	NOMO1 [3]	P12-Ichikawa [4]	SEM cells [2]
HPLM + 10% dialyzed FBS	457	454	437
RPMI 5 mM glucose + 10% FBS	470	455	430
RPMI 5 mM glucose + 10% dialyzed FBS	436	432	431

O=C1NC(=O)/C(=C/c2ccc3c(c2)OC(F)(F)O3)S1
AUC of viability dose-response curve
Conditions	NOMO1 [3]	P12-Ichikawa [4]	SEM cells [2]
HPLM + 10% dialyzed FBS	465	462	464
RPMI 5 mM glucose + 10% FBS	446	463	466
RPMI 5 mM glucose + 10% dialyzed FBS	457	440	466

CC(c1cc2ccccc2s1)N(O)C(N)=O (configuration not stated)
SEM cells [1], HPLM + 10% dialyzed FBS
Conditions	cell viability [%]
0.000781 µM	112
0.00234 µM	130
0.00702 µM	123
0.0211 µM	118
0.0632 µM	129
0.19 µM	136
0.569 µM	132
1.71 µM	120
5.12 µM	119
15.4 µM	116
46.1 µM	73.1

AUC of viability dose-response curve
Conditions	NOMO1 [3]	P12-Ichikawa [4]	SEM cells [2]
HPLM + 10% dialyzed FBS	474	456	463
RPMI 5 mM glucose + 10% FBS	459	460	459
RPMI 5 mM glucose + 10% dialyzed FBS	425	458	448
